Measurements reported in patent US6096874A (Board of Regents, the University of Texas System, priority 1995, dated 2000).
Read-outs that look alike come from different tables or passages of the source.

Legend:
uterus and ovaries = assay: PET imaging of pig uterus and ovaries and blood clearance in pigs; format: in vivo; settings: for Uterus/ovary uptake in PET image (in words): 1 h postinjection
Protocol: PET imaging was performed on four domestic female pigs (30 lb) with a positron camera (Positron Corporation, Houston, Tex). Each pig was supine in the scanner so that the detector rings would span the entire pelvic region. Prior to scanning, the position of the uterus and ovaries was determined by hysterosalpingography. Fifteen milliliters of radiopaque (Renografin 76 Squibb Diagnostic, New Brunswick, N.J.) was injected through the vagina into the uterus via a 5 Fr catheter with the balloon inflated by 1 ml of air. Radiographs of the pelvis in the anterior-posterior projection were taken. The location of the uterus was marked permanently on the skin of each pig for positioning in the PET camera.
A 20 min attenuation scan was performed with a 4 mCi ^68 Ge-ring source prior to tracer injection. After each pig received 10 mCi of [^18 F]FTX, […] consecutive 10 min scans were acquired. There was a 5 min wait between scans for data transfer. […] In order to examine the blood clearance profile of [^18 F]FTX, venous blood samples (0.5 ml) were collected every minute for the first ten minutes, followed by every ten minutes up to two hours. Serial transaxial images of the pelvic region were performed in order to view the uterus. The tomograph has a field-of-view of t42 cm on transverse and 12 cm on coronal planes. The axial resolution on the reconstructed plane is 1.2 cm.

in vivo = assay: in vivo; set-up: species or system rat; settings: for Tumor uptake: 120 min; for tissue uptake at 0.5 h / tissue uptake at 2 h / tissue uptake at 4 h: iv; for tissue uptake at 0.5 h: 30 min
Protocol: In animal tissue distribution studies, each rate was given 8.9 μCi (0.15 ml) tracer intravenously. The tumor-bearing rats were killed at 1, 3, 6 and 24 h. […] The amount of DES given should occupy tumor estrogen receptor sites. The methods for inducing tumors in rats was as described by those of skill in the art (radiology). […]
Female Fisher 344 rats (250-275 g) (Harlan, Inc., Indianapolis, Ind.) were inoculated with mammary tumor cells using the 13762 tumor cell line (s.c. 10^5 cells/rat). After 14 days, a tumor size of 1-2 cm was observed. For ^131 I-ITX studies, five groups of rats (N=3/group) were anesthetized with ketamine (10-15 mg/rat). The trans ^131 I-ITX was given to four of the five groups (8.9 μCi/rat, i.v.) and biodistribution was studied at 1, 3, 6 and 24 h intervals. In blocking studies, the fifth group of rats was given diethylstilbestrol (DES) (1.2 mg/rat) for 1 h, followed by 8.9 μCi of ^131 I-ITX; biodistribution was studied 6 h later. The tissues were collected at different time intervals. The tissues were weighted and counted for radioactivity. The percent of injected dose per gram of tissue weight was calculated. […]

[1] = 2 h, pretreated with DES (blocking)
[2] = rat, blood, read-out: Blood uptake
[3] = rat, bone, read-out: Bone uptake
[4] = rat, kidney, read-out: Kidney uptake
[5] = rat, liver, read-out: Liver uptake
[6] = rat, lung, read-out: Lung uptake
[7] = rat, muscle, read-out: Muscle uptake
[8] = rat, tumor, read-out: Tumor uptake
[9] = rat, uterus, read-out: Uterus uptake

Time to clearance from the blood stream (uterus and ovaries; 10 mCi i.v., pig): ≤ 10 min | Uterus/ovary uptake in PET image (in words) (uterus and ovaries; 10 mCi i.v., listed as 18 F-tamoxifen): can be blocked with DES | Target organ binding (in words) (uterus and ovaries; 30 minutes to 2 hours post-administration, pig): constant | Blood uptake (in vivo; [1]): 0.102 % injected dose/gram tissue | Bone uptake (in vivo; [1]): 0.278 % injected dose/gram tissue | Kidney uptake (in vivo; [1]): 1.241 % injected dose/gram tissue | Liver uptake (in vivo; [1]): 7.242 % injected dose/gram tissue | Lung uptake (in vivo; [1]): 2.084 % injected dose/gram tissue | Muscle uptake (in vivo; [1]): 0.131 % injected dose/gram tissue | Uterus uptake (in vivo; [1]): 0.435 % injected dose/gram tissue | Tumor uptake (in vivo; [1]): 0.24±0.017 % injected dose/gram tissue | Tumor uptake (in vivo; 2 h, pretreated with DES (blocking), listed as [^18 F]FLUOROMETHYL-N,N-DIETHYL-TAMOXIFEN): 0.244 % injected dose/gram tissue | Tumor uptake (in vivo; 2 h): 0.405 % injected dose/gram tissue | tissue uptake at 0.5 h (in vivo; [2]): 0.169 %ID/g | tissue uptake at 2 h (in vivo; rat, blood, 2 h, read-out: Blood uptake): 0.114 %ID/g | tissue uptake at 4 h (in vivo; [2]): 0.069 %ID/g | tissue uptake at 0.5 h (in vivo; [3]): 0.264 %ID/g | tissue uptake at 2 h (in vivo; rat, bone, 2 h, read-out: Bone uptake): 0.482 %ID/g | tissue uptake at 4 h (in vivo; [3]): 0.258 %ID/g | tissue uptake at 0.5 h (in vivo; [4]): 1.71 %ID/g | tissue uptake at 2 h (in vivo; rat, kidney, 2 h, read-out: Kidney uptake): 2.08 %ID/g | tissue uptake at 4 h (in vivo; [4]): 0.652 %ID/g | tissue uptake at 0.5 h (in vivo; [5]): 6.36 %ID/g | tissue uptake at 2 h (in vivo; rat, liver, 2 h, read-out: Liver uptake): 6.93 %ID/g | tissue uptake at 4 h (in vivo; [5]): 6.5 %ID/g | tissue uptake at 0.5 h (in vivo; [6]): 3.82 %ID/g | tissue uptake at 2 h (in vivo; rat, lung, 2 h, read-out: Lung uptake): 3.5 %ID/g | tissue uptake at 4 h (in vivo; [6]): 1.31 %ID/g | tissue uptake at 0.5 h (in vivo; [7]): 0.183 %ID/g | tissue uptake at 2 h (in vivo; rat, muscle, 2 h, read-out: Muscle uptake): 0.234 %ID/g | tissue uptake at 4 h (in vivo; [7]): 0.093 %ID/g | tissue uptake at 0.5 h (in vivo; [8]): 0.256 %ID/g | tissue uptake at 2 h (in vivo; rat, tumor, 2 h, read-out: Tumor uptake): 0.41 ± 0.07 %ID/g | tissue uptake at 4 h (in vivo; [8]): 0.284 %ID/g | tissue uptake at 0.5 h (in vivo; [9]): 0.536 %ID/g | tissue uptake at 4 h (in vivo; [9]): 0.364 %ID/g
Structure (SMILES): CCN(CC)CCOc1ccc(/C(=C(/CCC[18F])c2ccccc2)c2ccccc2)cc1 [[^18 F]FTX, (trans)[^18 F]Fluoromethyl-N,N-diethyltamoxifen]
Uterus/ovary uptake in PET image (in words) (uterus and ovaries; 10 mCi i.v.): increased uptake could be blocked after pretreatment with DES | Uterus/ovary uptake in PET image (in words) (uterus and ovaries; 10 mCi i.v., listed as 18 F-tracer): increased uptake could be blocked after pretreatment with diethylstilbestrol | Tissue uptake findings (in words) (in vivo; rat, in vivo): increased uptake in the tumor and uterus can be blocked by pretreatment with diethylstilbestrol (DES)
